Measured values from patent publication US9271993B2, “Treatment of bacterial infectious diseases” (priority 2010, dated 2016).
In brackets after ≈: the same amount, converted by molar mass. Where two headings read alike, the source gives them in different places.

Legend:
[1] = tested on: clinical methicillin resistant Staphylococcus aureus (MRSA) isolates; test: MIC against clinical MRSA isolates, LB microdilution assay
Description: Activity was assessed by determination of minimal inhibitory concentrations (MIC), as described in Pfister et al., Antimicrob. […] Cultures from single colonies were grown in LB medium and used for MIC tests in a microtiter plate format. Starting cultures contained 200 μl of bacterial cells at an optical density of 0.025 at 600 nm, and the respective drug was added in twofold series of dilution.

E. coli = test: MIC against gram-negative bacteria; assay type: cell-based; conditions: Escherichia coli, read-out: MIC
From the text: Agents Chemother. 2003, 47:1496-1502.

cytohybrid ribosomes = test: Ribosomal drug susceptibility (MIC) of recombinant bacteria; conditions: Table 10
Description: (§1) The recombinants carrying the respective mutational alterations were subjected to determinations of minimal inhibitory concentrations (MIC) to assess ribosomal drug susceptibility. Cultures from single colonies were grown in LB medium supplemented with 0.05% Tween 80 and used for MIC tests in a microtiter plate format. Starting cultures contained 200 μl of bacterial cells at an optical density of 0.025 at 600 nm, and the respective drug was added in twofold series of dilution.

bacterial ribosomes = test: as above; conditions: Table 10
Description: as §1

mitohybrid ribosomes = test: as above; conditions: Table 10
Description: as §1

[2] = Staphylococcus aureus, MRSA, MRSA AG038, strain 70-26S Gm^S
[3] = Staphylococcus aureus, MRSA, MRSA AG041, strain 98-25S Gm^S
[4] = Staphylococcus aureus, MRSA, MRSA AG043, strain 01-08R Gm^R
[5] = Staphylococcus aureus, MRSA, MRSA AG044, strain 07-12R Gm^R
[6] = Staphylococcus aureus, MRSA, MRSA AG045, strain 08-12R Gm^R
[7] = Staphylococcus aureus, MRSA, MRSA AG053, strain 56-06R Gm^R
[8] = E. coli AG02, clin. isol (Gm^S)
[9] = E. coli AG03, clin. isol (Gm^R)
[10] = E. coli AG07, BM13/pIP135, resistance mechanism AAC(3)
[11] = E. coli AG08, BM13/pIP055, resistance mechanism ANT(2″)
[12] = E. coli AG09, AAC(6′)-1B, resistance mechanism AAC(6′)
[13] = E. coli AG36, HB101/pAT197, resistance mechanism ANT(4′)
[14] = E. coli AG37, HB101/pAG21-1, resistance mechanism APH(3′)

Work on `NC[C@@H]1O[C@H](O[C@H]2[C@@H](O)[C@H](O[C@@H]3[C@@H](O)[C@H](N)C[C@H](N)[C@H]3O[C@H]3O[C@H](CO)[C@@H](O)[C@H](O)[C@H]3N)O[C@@H]2CO)[C@H](N)[C@@H](O)[C@@H]1O` [Paromomycin] yielded an MIC ([1]; MRSA AG040, strain 87-26S Gm^S) greater than 256 µg/mL, an MIC ([1]; MRSA AG046, strain 12-06R Gm^R) greater than 256 µg/mL and an MIC ([1]; MRSA AG047, strain 18-06R Gm^R) greater than 256 µg/mL. For the same compound, the MIC ([1]; MRSA AG048, strain 20-06R Gm^R) was greater than 256 µg/mL, the MIC ([1]; MRSA AG049, strain 23-12R Gm^R) was greater than 256 µg/mL and the MIC ([1]; MRSA AG050, strain 31-06R Gm^R) was greater than 256 µg/mL. The MIC ([1]; MRSA AG051, strain 36-06R Gm^R) was greater than 256 µg/mL, the MIC ([1]; MRSA AG052, strain 53-14I Gm^R) was greater than 256 µg/mL and the MIC ([1]; Staphylococcus aureus, MRSA) was greater than 256 µg/mL. It also gave an MIC [1, 2] of 2 to 4 µg/mL (≈ 3.25 to 6.5 µM), an MIC [1, 3] of 4 µg/mL (≈ 6.5 µM) and an MIC [1, 4] of 4 to 8 µg/mL (≈ 6.5 to 13 µM). It also gave an MIC [1, 5] of 2 to 4 µg/mL (≈ 3.25 to 6.5 µM), an MIC [1, 6] of 4 µg/mL (≈ 6.5 µM) and an MIC [1, 7] of 2 to 4 µg/mL (≈ 3.25 to 6.5 µM). It also gave an MIC (E. coli; E. coli AG01, clin. isol. (Gm^S)) of 16 to 32 µg/mL (≈ 26 to 52 µM), an MIC (E. coli; [8]) of 8 to 16 µg/mL (≈ 13 to 26 µM) and an MIC (E. coli; [9]) of 8 to 16 µg/mL (≈ 13 to 26 µM). It also gave an MIC (E. coli; E. coli AG06, BM13) of 2 µg/mL (≈ 3.25 µM), an MIC (E. coli; [10]) of 8 µg/mL (≈ 13 µM) and an MIC (E. coli; [11]) of 4 to 8 µg/mL (≈ 6.5 to 13 µM). It also gave an MIC (E. coli; [12]) of 8 to 16 µg/mL (≈ 13 to 26 µM), an MIC (E. coli; [13]) of 256 µg/mL (≈ 416 µM) and an MIC (E. coli; [14]) greater than 256 µg/mL.
For `CNC1C(OC2OC(CO)C(NC(=O)C(O)CCN)C(O)C2O)OC2CC(N)C(OC3C(N)CC(N)C(O)C3O)OC2C1O` [ETH 105, 4″-N-[(2S)-4-Amino-2-hydroxybutyryl]apramycin], the “MIC, bacteria with cytohybrid ribosome” value (cytohybrid ribosomes) was greater than 256.0 µg/mL, the “MIC, wild type bacteria” value (bacterial ribosomes) was 4.0 µg/mL and the “MIC, bacteria with mitohybrid ribosome” value (mitohybrid ribosomes) was greater than 256.0 µg/mL.
With `CC(=O)O.CC(=O)O.CC(=O)O.CC(=O)O.CNC1C(OC2OC(CO)C(N)C(O)C2O)OC2CC(N)C(OC3C(N)CC(NC(=O)C(O)CCN)C(O)C3O)OC2C1O` [ETH 102, 1-N-[(2S)-4-Amino-2-hydroxybutyryl]apramycin tetraacetate] the “MIC, bacteria with cytohybrid ribosome” value (cytohybrid ribosomes) was greater than 256.0 µg/mL, the “MIC, wild type bacteria” value (bacterial ribosomes) was 4.0 µg/mL and the “MIC, bacteria with mitohybrid ribosome” value (mitohybrid ribosomes) was greater than 256.0 µg/mL.
In the case of `CC(=O)O.CC(=O)O.CC(=O)O.CC(=O)O.CN1C(=O)OC2C3OC(OC4C(N)CC(N)C(O)C4O)C(N)CC3OC(OC3OC(CO)C(NC(=O)C(O)CCN)C(O)C3O)C21` [ETH 99, 7′-N,6′-O-Carbonyl-4″-N-[(2S)-4-amino-2-hydroxybutyryl]apramycin tetraacetate], the “MIC, bacteria with cytohybrid ribosome” value (cytohybrid ribosomes) is reported as greater than 256.0 µg/mL, the “MIC, wild type bacteria” value (bacterial ribosomes) is reported as 2.0 to 4.0 µg/mL and the “MIC, bacteria with mitohybrid ribosome” value (mitohybrid ribosomes) is reported as greater than 256.0 µg/mL.
`CN[C@@H]1[C@@H](O)[C@@H](O[C@@H]2[C@@H](O)[C@H](O[C@H]3OC(CN)=CC[C@H]3N)[C@@H](N)C[C@H]2N)OC[C@]1(C)O` [Sisomicin] was tested, and the MIC [1, 2] was 0.25 µg/mL (≈ 0.559 µM), the MIC ([1]; Staphylococcus aureus, MRSA, MRSA AG040, strain 87-26S Gm^S) was 0.25 µg/mL (≈ 0.559 µM) and the MIC [1, 3] was 0.25 µg/mL (≈ 0.559 µM). It also gave an MIC ([1]; Staphylococcus aureus, MRSA, MRSA AG042, strain 101-06R Gm^R) of 32 µg/mL (≈ 71.5 µM), an MIC [1, 4] of 32 to 64 µg/mL (≈ 71.5 to 143 µM) and an MIC [1, 5] of 8 µg/mL (≈ 17.9 µM). The MIC [1, 6] was 4 to 8 µg/mL (≈ 8.94 to 17.9 µM), the MIC ([1]; Staphylococcus aureus, MRSA, MRSA AG046, strain 12-06R Gm^R) was greater than 256 µg/mL and the MIC ([1]; Staphylococcus aureus, MRSA, MRSA AG047, strain 18-06R Gm^R) was greater than 256 µg/mL. The MIC ([1]; Staphylococcus aureus, MRSA, MRSA AG048, strain 20-06R Gm^R) was greater than 256 µg/mL, the MIC ([1]; Staphylococcus aureus, MRSA, MRSA AG049, strain 23-12R Gm^R) was 8 µg/mL (≈ 17.9 µM) and the MIC ([1]; Staphylococcus aureus, MRSA, MRSA AG050, strain 31-06R Gm^R) was 128 to 256 µg/mL (≈ 286 to 572 µM). It also gave an MIC ([1]; Staphylococcus aureus, MRSA, MRSA AG051, strain 36-06R Gm^R) of 64 µg/mL (≈ 143 µM), an MIC ([1]; Staphylococcus aureus, MRSA, MRSA AG052, strain 53-14I Gm^R) of 8 µg/mL (≈ 17.9 µM) and an MIC [1, 7] of 32 µg/mL (≈ 71.5 µM). For the same compound, the MIC (E. coli; [8]) was 1 µg/mL (≈ 2.23 µM), the MIC (E. coli; [9]) was 32 to 128 µg/mL (≈ 71.5 to 286 µM) and the MIC (E. coli; E. coli AG06, BM13) was 0.25 µg/mL (≈ 0.559 µM). It also gave an MIC (E. coli; [10]) of 16 µg/mL (≈ 35.8 µM), an MIC (E. coli; [11]) of 8 µg/mL (≈ 17.9 µM) and an MIC (E. coli; [12]) of 16 µg/mL (≈ 35.8 µM). For the same compound, the MIC (E. coli; [13]) was 0.25 µg/mL (≈ 0.559 µM) and the MIC (E. coli; [14]) was 0.125 µg/mL (≈ 0.279 µM).
`CC(=O)O.CC(=O)O.CC(=O)O.CC(=O)O.CNC1C(OC2OC(CO)C(N)C(O)C2O)OC2CC(NC(=O)C(O)CCN3C(=O)c4ccccc4C3=O)C(OC3C(N)CC(N)C(O)C3O)OC2C1O` (centres unmarked) [ETH 103] was tested, and the “MIC, bacteria with cytohybrid ribosome” value (cytohybrid ribosomes) was greater than 256.0 µg/mL, the “MIC, wild type bacteria” value (bacterial ribosomes) was 8.0 µg/mL and the “MIC, bacteria with mitohybrid ribosome” value (mitohybrid ribosomes) was greater than 256.0 µg/mL.
With `CC(=O)O.CC(=O)O.CC(=O)O.CC(=O)O.CN[C@@H]1[C@@H](O[C@H]2O[C@H](CO)[C@@H](N)[C@H](O)[C@H]2O)O[C@H]2C[C@@H](NC(=O)[C@@H](O)CCN)[C@@H](O[C@H]3[C@H](O)[C@@H](O)[C@H](N)C[C@@H]3N)O[C@@H]2[C@@H]1O` [ETH 100, 2′-N-[(2S)-4-Amino-2-hydroxybutyryl]apramycin tetraacetate] the “MIC, bacteria with cytohybrid ribosome” value (cytohybrid ribosomes) was greater than 256.0 µg/mL, the “MIC, wild type bacteria” value (bacterial ribosomes) was 2.0 to 4.0 µg/mL and the “MIC, bacteria with mitohybrid ribosome” value (mitohybrid ribosomes) was greater than 256.0 µg/mL.
